For the experiment, the system named is CD3-stimulated T cells. Put plainly: CD3 stimulation of T cells: metabolite titration curves, 3[H]-thymidin incorporation. The class given is cell-based, human. Conditions: anti-CD3 antibody, 3 days. An excerpt: • (a) Allogeneic T-cell response. DCs were infected with recombinant IDO-adeno-GFP (DC-IDO-GFP), IDO-adeno (DC-IDO) or with control adenoviruses (DC-adeno) at a MOI (multiplicity of infection) up to 500 for 2 days. Lymphocytes (PBMCs) were separated from peripheral blood of healthy donors by density gradient centrifugation and typed for HLA antigens. Only HLA-DR-different responder lymphocytes were used for DC-induced stimulation. Native DCs only, lymphocytes only, native DCs + allogeneic lymphocytes, DC-IDO-GFP + allogeneic lymphoytes, DC-IDO + allogeneic lymphoytes, DC-adeno + allogeneic lymphocytes (each time 10^5 DC + 10^5 lymphocytes in 0.2ml medium) were cultured in RPMI 1640 medium (Gibco BRL Life Technologies GmbH, Eggenstein, Germany) with 10% fetal calf serum (FCS) (final tryptophan concentration 5.25 mg/l = 25.69 uM) and Penicillin G/Streptomycin. […] In order to verify whether IDO expression or adenovirus infection harm the DCs, 10^5 cells were infected with IDO-adeno-GFP, IDO-adenovirus, or adenovirus only at a stepwise decreasing MOI (500, 250, 125, ........ 3.9) and cell viability was measured in FACS following double staining with 7-AAD and anti-CD83 antibody-PE. The percentage of dead cells never exceeded 30% for any MOI following IDO-adeno-GFP- or IDO-adeno-infection and 40% following adenovirus(control)-infection. Moreover, these values were not higher than those of native DCs cultured for the same period of time. The experiment was repeated using ethidium bromide or trypan blue staining with virtually the same result. […] Peripheral blood lymphocytes were cultured (10^5 cells/well) in RPMI 1640 (10% FCS) with anti CD3 monoclonal antibody (Ortho Diagnostic Systems Inc., Raritan, NJ) (final dilution 1:200). […] Kynurenine, 3-hydroxykynurenine, anthranilic acid, 3-hydroxyanthranilic acid, and quinolinic acid (Sigma-Aldrich Chemie GmbH, Taufkirchen, Germany)(for all substances purity>98%) were dissolved in RPMI 1640 and added to cell cultures at various concentrations. In an other experiment, to determine whether the metabolites have an additive effect, equal concentrations of the compounds were mixed and added to the cultures. […] Positive controls consisted of CD3-stimulated cells without metabolites and negative controls of unstimulated cells. • (d) Restimulation of suppressed T cells. Lymphocytes (10^5 cells/well) were cultured in RPMI 1640 (10% FCS) with anti-CD3 monoclonal antibody (final dilution 1:200) and kynurenine (dilution series). […] Controls consisted of cells prestimulated with anti-CD3 but not pretreated with kynurenine. In an other restimulation experiment lymphocytes were stimulated with allogeneic DCs as described, in the presence (47-1500µM) or absence of kynurenine. Control cultures contained DCs or lymphocytes only. After 5 days the cells were extensively washed, and restimulated with an identical number of DCs derived from the same donor or from third party donors. […] In order to define the concentration of tryptophan which reduces T- lymphocyte proliferation in our test system, 10^5 lymphocytes were incubated in tryptophan-free RPMI 1640 medium (Gibco BRL Life Technologies) with or without 10% FCS, stimulated with anti-CD3 monoclonal antibody, and various amounts (0-38µM) of tryptophan were added. Unimpaired proliferation was observed down to 0.30µM (medium with FCS) and 1 .20µM (without FCS). Complete inhibition was not obtained at any concentration (positive control 100% proliferation; maximal suppression in medium with FCS: approx. 66% and without FCS: approx. 33%). All cell cultures were done in triplicate.
All tests were carried out in triplicate and results are given as mean +standard deviation. […] Thereafter, the concentration of substance giving 50% proliferation was calculated by regression.

Each structure is given as a SMILES string.

With `Nc1ccccc1C(=O)CC(N)C(=O)O` (centres unmarked) [kynurenine], the “suppression of T cell response (in words)” value was “suppressed proliferation”. Besides, for the setting “Homo sapiens, T-cell, 72 h, single substance, read-out: I50 of proliferation of CD3-stimulated T cells”, the IC50 stood at 553 µM.

For the origin of these results see patent publication EP1369114A1, “Use of tryptophan metabolites as pharmaceutical agents” (Terness, Peter, Priv. Doz. Dr., priority 2002, dated 2003).
